{
  "source": "patent EP1561465A2",
  "about": "“Methods of use of fluoroquinolone compounds against bacteria” (LG Life Sciences, Ltd., priority 1999, dated 2001)",
  "format_in_all_cases": "cell-based",
  "key": {"Streptococcus pneumoniae": {"tested_on": "Streptococcus pneumoniae", "assay": "MIC by NCCLS reference broth microdilution, 450 respiratory tract pathogens", "settings": "Streptococcus pneumoniae, penicillin susceptible (n = 20)"}, "Klebsiella pneumoniae": {"tested_on": "Klebsiella pneumoniae", "assay": "MIC by NCCLS reference broth microdilution, 450 respiratory tract pathogens", "settings": "for MIC50 / MIC90: Klebsiella pneumoniae"}, "Acinetobacter spp.": {"tested_on": "Acinetobacter spp.", "assay": "MIC by agar dilution (NCCLS), 322 nosocomial Gram negative isolates, Athens 1998", "settings": "n = 38 strains"}, "Aeromonas spp.": {"tested_on": "Aeromonas spp.", "assay": "MIC by agar dilution (NCCLS M7-A4), 288 enteropathogenic isolates, eight quinolones", "settings": "Aeromonas spp. (n = 16)"}, "Klebsiella oxytoca": {"tested_on": "Klebsiella oxytoca", "assay": "MIC by NCCLS broth microdilution, 1100 Japanese clinical isolates 1997-1998", "settings": "Klebsiella oxytoca (n=40)"}, "[1]": {"tested_on": "Gram positive anaerobic and facultative anaerobic pathogens", "assay": "microbe, parasite or virus in culture"}, "[2]": {"assay": "MIC by agar dilution, Brucella HK agar, 491 anaerobic clinical isolates"}, "Staphylococcus aureus": {"tested_on": "Staphylococcus aureus", "assay": "MIC by NCCLS reference broth microdilution, 450 respiratory tract pathogens"}, "[3]": {"settings": "extended spectrum β-lactamase negative (n = 30)"}, "[4]": {"settings": "extended spectrum β-lactamase positive (n = 20)"}, "[5]": {"settings": "β-lactamase positive and erythromycin resistant (n = 10)"}},
  "data": [
    {"smiles": "CO/N=C1\\CN(c2nc3c(cc2F)c(=O)c(C(=O)O)cn3C2CC2)CC1CN", "note": "(racemic) [Gemifloxacin, (R,S)-7-(3-aminomethyl-4-methoxyiminopyrrolidin-1-yl)-1-cyclopropyl-6-fluoro-4-oxo-1,4-dihydro-1,8-naphthyridine-3-carboxylic acid]", "values": [
      {"measurement": "MIC", "setting": "Streptococcus pneumoniae", "result": "0.0075 to 0.03", "unit": "µg/mL"},
      {"measurement": "MIC50", "setting": "Streptococcus pneumoniae", "result": 0.015, "unit": "µg/mL"},
      {"measurement": "MIC90", "setting": "Streptococcus pneumoniae", "result": 0.03, "unit": "µg/mL"},
      {"measurement": "MIC Range", "setting": "Klebsiella pneumoniae; Klebsiella pneumoniae (n = 50)", "result": "≤0.0075 to 1", "unit": "µg/mL"},
      {"measurement": "MIC50", "setting": "Klebsiella pneumoniae; Klebsiella pneumoniae (n = 50)", "result": 0.03, "unit": "µg/mL"},
      {"measurement": "MIC90", "setting": "Klebsiella pneumoniae; Klebsiella pneumoniae (n = 50)", "result": 0.25, "unit": "µg/mL"},
      {"measurement": "MIC50", "setting": "Klebsiella pneumoniae; [3]", "result": 0.015, "unit": "µg/mL"},
      {"measurement": "MIC90", "setting": "Klebsiella pneumoniae; [3]", "result": 0.06, "unit": "µg/mL"},
      {"measurement": "MIC50", "setting": "Klebsiella pneumoniae; [4]", "result": 0.25, "unit": "µg/mL"},
      {"measurement": "MIC90", "setting": "Klebsiella pneumoniae; [4]", "result": 0.5, "unit": "µg/mL"},
      {"measurement": "MIC Range", "setting": "Klebsiella pneumoniae; [3]", "result": "≤0.0075 to 0.12", "unit": "µg/mL"},
      {"measurement": "MIC Range", "setting": "Klebsiella pneumoniae; [4]", "result": "0.03 to 1", "unit": "µg/mL"},
      {"measurement": "MIC50", "setting": "Acinetobacter spp.; Acinetobacter", "result": 2, "unit": "µg/mL"},
      {"measurement": "MIC90", "setting": "Acinetobacter spp.; Acinetobacter", "result": 32, "unit": "µg/mL"},
      {"measurement": "MIC Range", "setting": "Acinetobacter spp.", "result": "0.06 to 32", "unit": "µg/mL"},
      {"measurement": "% Susceptible", "setting": "Aeromonas spp.", "result": 100, "unit": "%"},
      {"measurement": "MIC50", "setting": "Aeromonas spp.", "result": "≤ 0.015", "unit": "µg/mL"},
      {"measurement": "MIC90", "setting": "Aeromonas spp.", "result": 0.03, "unit": "µg/mL"},
      {"measurement": "MIC Range", "setting": "Aeromonas spp.", "result": "≤0.015 to 0.12", "unit": "µg/mL"},
      {"measurement": "MIC50", "setting": "Klebsiella oxytoca", "result": 0.032, "unit": "µg/mL"},
      {"measurement": "MIC90", "setting": "Klebsiella oxytoca", "result": 4, "unit": "µg/mL"},
      {"measurement": "MIC Range", "setting": "Klebsiella oxytoca", "result": "≤0.008 to 32", "unit": "µg/mL"},
      {"measurement": "MIC", "setting": "[1]; Bifidobacterium adolescentis, ATCC15703", "result": 0.25, "unit": "µg/mL"},
      {"measurement": "MIC", "setting": "[1]; Bifidobacterium bifidum, JCM1255", "result": 2, "unit": "µg/mL"},
      {"measurement": "MIC", "setting": "[1]; Bifidobacterium breve, ATCC15700", "result": 1, "unit": "µg/mL"},
      {"measurement": "MIC", "setting": "[1]; Bifidobacterium longum, ATCC15707", "result": 1, "unit": "µg/mL"},
      {"measurement": "MIC", "setting": "[1]; Bifidobacterium pseudolongum, ATCC25526", "result": 1, "unit": "µg/mL"},
      {"measurement": "MIC", "setting": "[1]; Clostridioides difficile", "result": 2, "unit": "µg/mL"},
      {"measurement": "MIC", "setting": "[1]; Clostridium perfringens, ATCC13124", "result": 0.06, "unit": "µg/mL"},
      {"measurement": "MIC", "setting": "[1]; Clostridium septicum, ATCC12464", "result": 0.06, "unit": "µg/mL"},
      {"measurement": "MIC", "setting": "[1]; Cutibacterium acnes, ATCC11828", "result": 0.25, "unit": "µg/mL"},
      {"measurement": "MIC", "setting": "[1]; Eggerthella lenta, ATCC25559", "result": 0.25, "unit": "µg/mL"},
      {"measurement": "MIC", "setting": "[1]; Finegoldia magna, ATCC29328", "result": "≤ 0.03", "unit": "µg/mL"},
      {"measurement": "MIC", "setting": "[1]; Gemella morbillorum, ATCC27824", "result": 0.25, "unit": "µg/mL"},
      {"measurement": "MIC", "setting": "[1]; Lacticaseibacillus casei, JCM1134", "result": "≤ 0.03", "unit": "µg/mL"},
      {"measurement": "MIC", "setting": "[1]; Lactiplantibacillus plantarum, JCM1149", "result": 2, "unit": "µg/mL"},
      {"measurement": "MIC", "setting": "[1]; Lactobacillus acidophilus, JCM1132", "result": 0.5, "unit": "µg/mL"},
      {"measurement": "MIC", "setting": "[1]; Levilactobacillus brevis, JCM1059", "result": 0.5, "unit": "µg/mL"},
      {"measurement": "MIC", "setting": "[1]; Ligilactobacillus salivarius, JCM1231", "result": 0.06, "unit": "µg/mL"},
      {"measurement": "MIC", "setting": "[1]; Limosilactobacillus reuteri, JCM1112", "result": 0.25, "unit": "µg/mL"},
      {"measurement": "MIC", "setting": "[1]; Limosilactobacillus reuteri, JCM1173", "result": 0.25, "unit": "µg/mL"},
      {"measurement": "MIC", "setting": "[1]; Paraclostridium sordellii, ATCC9714", "result": 0.5, "unit": "µg/mL"},
      {"measurement": "MIC", "setting": "[1]; Parvimonas micra", "result": 0.125, "unit": "µg/mL"},
      {"measurement": "MIC", "setting": "[1]; Peptoniphilus asaccharolyticus", "result": 0.125, "unit": "µg/mL"},
      {"measurement": "MIC", "setting": "[1]; Peptoniphilus indolicus", "result": "≤ 0.03", "unit": "µg/mL"},
      {"measurement": "MIC", "setting": "[1]; Peptostreptococcus anaerobius, ATCC27337", "result": 0.06, "unit": "µg/mL"},
      {"measurement": "MIC", "setting": "[1]; Schaalia odontolytica", "result": 4, "unit": "µg/mL"},
      {"measurement": "MIC", "setting": "[1]; Staphylococcus saccharolyticus, ATCC14953", "result": "≤ 0.03", "unit": "µg/mL"},
      {"measurement": "MIC", "setting": "[1]; Streptococcus constellatus, ATCC27823", "result": "≤ 0.03", "unit": "µg/mL"},
      {"measurement": "MIC", "setting": "[1]; Streptococcus intermedius, ATCC27335", "result": 0.06, "unit": "µg/mL"},
      {"measurement": "MIC", "setting": "[1]; Thomasclavelia ramosa, ATCC25582", "result": 0.5, "unit": "µg/mL"},
      {"measurement": "MIC90", "setting": "[2]; clinical isolates of Bacteroides spp., Prevotella bivia and other Prevotella spp.", "result": "8 to 32", "unit": "µg/mL"},
      {"measurement": "MIC", "setting": "[2]; read-out: MIC90s", "result": "0.125 to 0.5", "unit": "µg/mL"},
      {"measurement": "MIC", "setting": "Staphylococcus aureus; Staphylococcus aureus (n = 50)", "result": "0.00375 to 0.12", "unit": "µg/mL"},
      {"measurement": "MIC50", "setting": "Staphylococcus aureus; Staphylococcus aureus (n = 50)", "result": 0.06, "unit": "µg/mL"},
      {"measurement": "MIC90", "setting": "Staphylococcus aureus; Staphylococcus aureus (n = 50)", "result": 0.12, "unit": "µg/mL"},
      {"measurement": "MIC", "setting": "Staphylococcus aureus; β-lactamase negative (n = 20)", "result": "0.06 to 0.12", "unit": "µg/mL"},
      {"measurement": "MIC50", "setting": "Staphylococcus aureus; β-lactamase negative (n = 20)", "result": 0.12, "unit": "µg/mL"},
      {"measurement": "MIC90", "setting": "Staphylococcus aureus; β-lactamase negative (n = 20)", "result": 0.12, "unit": "µg/mL"},
      {"measurement": "MIC", "setting": "Staphylococcus aureus; β-lactamase positive (n = 20)", "result": "0.00375 to 0.12", "unit": "µg/mL"},
      {"measurement": "MIC50", "setting": "Staphylococcus aureus; β-lactamase positive (n = 20)", "result": 0.12, "unit": "µg/mL"},
      {"measurement": "MIC90", "setting": "Staphylococcus aureus; β-lactamase positive (n = 20)", "result": 0.123, "unit": "µg/mL"},
      {"measurement": "MIC", "setting": "Staphylococcus aureus; [5]", "result": "0.06 to 0.12", "unit": "µg/mL"},
      {"measurement": "MIC50", "setting": "Staphylococcus aureus; [5]", "result": 0.06, "unit": "µg/mL"},
      {"measurement": "MIC90", "setting": "Staphylococcus aureus; [5]", "result": 0.06, "unit": "µg/mL"}
    ]}
  ]
}
